Data from ChEMBL document CHEMBL1125670, “Synthesis and evaluation of novel ether lipid nucleoside conjugates for anti-HIV-1 activity” (J Med Chem, 1991).
One block for each compound: values may come before it.

How the values were obtained:
CEM-SS = assay: Concentration of compound required to 50% growth inhibition of CEM-SS cells
[1] = test system: Human immunodeficiency virus 1; assay: Anti-HIV-1 activity against syncytial plaque formation; format: functional, organism-based
U1 [2] = assay: (§1) inhibition of infectious virus production in U1 cells; format: functional, Homo sapiens; design: scale not given: the % may be the effect or the level left
U1 [3] = assay: (§2) inhibition of HIV-1 induced RT production in U1 cells; format: functional, Homo sapiens; design: scale not given: the % may be the effect or the level left
U1 [4] = assay: (§3) inhibition of p24 core antigen synthesis in U1 cells; format: functional, Homo sapiens; design: scale not given: the % may be the effect or the level left
[5] = test system: Human immunodeficiency virus 1; assay: Anti-HIV-1 activity against syncytial plaque formation at a conc. of 0.03 uM; format: functional
[6] = test system: Human immunodeficiency virus 1; assay: Anti-HIV-1 activity against syncytial plaque formation at a conc. of 1 uM; format: functional
[7] = test system: Human immunodeficiency virus 1; assay: Anti-HIV-1 activity against syncytial plaque formation at a conc. of 0.06 uM; format: functional
[8] = test system: Human immunodeficiency virus 1; assay: Anti-HIV-1 activity against syncytial plaque formation at a conc. of 0.12 uM; format: functional
[9] = test system: Human immunodeficiency virus 1; assay: Anti-HIV-1 activity against syncytial plaque formation at a conc. of 0.5 uM; format: functional
[10] = test system: Human immunodeficiency virus 1; assay: Anti-HIV-1 activity against syncytial plaque formation at a conc. of 0.25 uM; format: functional
[11] = test system: Human immunodeficiency virus 1; assay: Anti-HIV-1 activity against syncytial plaque formation at a conc. of 0.0003 uM; format: functional
U1 [12] = assay: as §3; format: functional, Homo sapiens
[13] = test system: Human immunodeficiency virus 1; assay: Anti-HIV-1 activity against syncytial plaque formation at a conc. of 0.0015 uM; format: functional
[14] = test system: Human immunodeficiency virus 1; assay: Anti-HIV-1 activity against syncytial plaque formation at a conc. of 0.006 uM; format: functional
U1 [15] = assay: as §2; format: functional, Homo sapiens
[16] = test system: Human immunodeficiency virus 1; assay: Anti-HIV-1 activity against syncytial plaque formation at a conc. of 0.0007 uM; format: functional
[17] = test system: Human immunodeficiency virus 1; assay: Anti-HIV-1 activity against syncytial plaque formation at a conc. of 0.003 uM; format: functional
U1 [18] = assay: as §1; format: functional, Homo sapiens
[19] = test system: Human immunodeficiency virus 1; assay: Anti-HIV-1 activity against syncytial plaque formation at a conc. of 0.012 uM; format: functional

SMILES: CCCCCCCCCCCCCCCCCC(=O)NCC(COP(=O)(O)O)OCC (stereo not given)
IC50 (CEM-SS): > 100 µM
IC50 [1]: > 100 µM

SMILES: CCCCCCCCCCCCCCCCCC(=O)NCC(COP(=O)(O)OC[C@@H]1CC[C@H](n2cnc3c(=O)[nH]cnc32)O1)OCC (stereo not given in full)
IC50 (CEM-SS): > 100 µM
IC50 [1]: 1.56 µM

SMILES: CCCCCCCCCCCCCCCCCC(=O)NCC(CO)OCC (stereo not given)
IC50 (CEM-SS): > 100 µM
IC50 [1]: > 100 µM

SMILES: CCCCCCCCCCCCCCCCCCOCC(COP(=O)([O-])OCC[N+](C)(C)C)OC (stereo not given) [EDELFOSINE]
IC50 (CEM-SS): 4 µM
IC50 [1]: 1.4 µM

SMILES: O=c1[nH]cnc2c1ncn2[C@H]1CC[C@@H](CO)O1 [DIDANOSINE]
IC50 (CEM-SS): > 100 µM
IC50 [1]: 1.7 µM

SMILES: Cc1cn([C@H]2C[C@H](N=[N+]=[N-])[C@@H](CO)O2)c(=O)[nH]c1=O [ZIDOVUDINE]
IC50 (CEM-SS): 5.1 µM
inhibition at 0.0003 µM [11]: 18%
Of control (U1 [12]): 101%
inhibition at 0.0015 µM [13]: 70%
inhibition at 0.006 µM [14]: 87%
Of control (U1 [15]): 90%
inhibition at 0.0007 µM [16]: 53%
inhibition at 0.003 µM [17]: 79%
Of control (U1 [18]): 87%
inhibition at 0.012 µM [19]: 93%

Continued, in another order:

IC50 [1]: 0.03 µM
SMILES: CCCCCCCCCCCCCCCCCC(=O)NCC(COP(=O)([O-])OC[C@H]1O[C@@H](n2cc(C)c(=O)[nH]c2=O)C[C@@H]1N=[N+]=[N-])OCC.[Na+] (stereo not given in full)
IC50 (CEM-SS): 53.8 µM
Control (U1 [2]): 67%
Control (U1 [3]): 121%
Control (U1 [4]): 84%

IC50 [1]: 0.6 µM
SMILES: CCCCCCCCCCCCCCCCSCC(COP(=O)([O-])OCC[N+](C)(C)C)OCC (stereo not given)
IC50 (CEM-SS): 4.1 µM

IC50 [1]: 0.11 µM
SMILES: CCCCCCCCCCCCCCCCCC(=O)[N-]CC(COP(=O)([O-])OCC[N+](C)(C)C)OCC.[Na+] (stereo not given)
IC50 (CEM-SS): 14.3 µM
Control (U1 [2]): 33%
inhibition at 0.03 µM [5]: 14%
Control (U1 [3]): 147%
inhibition at 1 µM [6]: 89%
inhibition at 0.06 µM [7]: 34%
inhibition at 0.12 µM [8]: 49%
Control (U1 [4]): 74%
inhibition at 0.5 µM [9]: 74%
inhibition at 0.25 µM [10]: 60%

IC50 [1]: 0.03 µM
SMILES: CCCCCCCCCCCCCCCCOCC(COP(=O)(O)OC[C@H]1O[C@@H](n2cc(C)c(=O)[nH]c2=O)C[C@@H]1N=[N+]=[N-])OCC (stereo not given in full)
IC50 (CEM-SS): 35 µM
